Laboratory results reported in patent publication US20150044717A1, “DEVICES AND METHODS FOR OBSERVING EUKARYOTIC CELLS WITHOUT CELL WALL” (CENTRE NATIONAL DE LA RECHERCHE SCIENTIFIQUE, priority 2012, published 2015).

System: cytokinetic ring of HeLa cells
Experiment: closure of the cytokinetic ring of cells in egg cups after addition of drugs (fluorescence microscopy)
Type: cell-based, human
Conditions: for ring diameter as a function of time / closing speed: after addition of latrunculin A 1.5 μM
Description: For the experiments, a human HeLa cell line was used. The cells were stably transfected with a plasmid coding for actin monomers tagged with GFP. Cells were cultured in a growth medium containing DMEM with 10% FCS and 2 mM of L-Glutamine. After replating cells, Geneticin (0.5 mg/ml) was added to the medium.
During the experiments, cells were cultured in L-15 with 10% FCS and 2 mM of L-Glutamine.
Synchronized cells were obtained by mitotic shake-off. To have a sufficient number of dividing cells, cells were cultured in flasks of 75 cm^2 surface. The flasks were tapped on a solid surface to detach loosely attached cells, which rounded up before undergoing division. Alternatively, cells were synchronized with classical protocols such as the thymidine block, mitotic block (both Whitfield M L, Mol. Cell. Biol. 2000, 20(12): 4188-4198) or monastrol incubation (Straight A F et al., Science. 2003, 299:1743-1747).
The coverslips with the egg cups were exposed to nitrogen plasma for 30 s and then incubated with a solution of fibronectin (20 μg/ml in phosphate buffered saline (PBS), Sigma Aldrich) for 1 h. The sample could be stored in PBS for some hours. A cylindrically shaped plastic piece was placed in a 50 ml tube. The tube was filled with 6.5 ml of growth medium. The egg cup coverslip was horizontally placed in a tube, supported by the plastic cylinder. The suspension of synchronized cells was added on top of the coverslip. The tube was centrifuged for 5 min at 4000 rpm. The coverslip was carefully removed from the tube and installed in a home-made metallic holder. L-15 medium with 10% FCS and 2 mM L-Glutamine was immediately added. During the experiment the holder was closed by a plastic cover to prevent evaporation.
The drugs were added immediately before the experiment. The inventors used a concentration of 1.5 μM latrunculin A (Sigma Aldrich) (Delanoc-Ayari H. et al., Phys. Rev. Lett. 2004, 93(10): 108102) and 100 μM (−)-blebbistatin (Sigma Aldrich) (Straight A F et al., Science. 2003, 299:1743-1747).
The objective was a Plan Apo 60× objective (oil, 1.40 NA, Nikon). The images were captured and processed with the NIS Elements software (v3.10, SP3, Nikon).

[1] = blebbistatin 100 μM, HeLa cells in egg cups

| Structure (SMILES) | cell division (ring diameter as a function of time) [1] | closure of the cytokinetic ring [1] | ring diameter as a function of time / closing speed (HeLa cells in egg cups) | ring diameter as a function of time / closing speed (HeLa cells in egg cups, listed as latrunculin A) | cell division (in the presence of latrunculin A 1.5 μM, HeLa cells in egg cups) | closure of the cytokinetic ring (latrunculin A 1.5 μM, HeLa cells with GFP-actin in egg cups) |
| --- | --- | --- | --- | --- | --- | --- |
| Cc1ccc2c(c1)C(=O)C1(O)CCN(c3ccccc3)C1=N2 (single isomer, unassigned; (-)) [Blebbistatin, (−)-blebbistatin] | slows down and stops the division | the closure was slowed down and failed | – | – | – | – |
| C/C1=C/C(=O)O[C@@H]2C[C@@H](CC[C@H](C)/C=C\C=C\CC1)O[C@@](O)([C@@H]1CSC(=O)N1)C2 [Latrunculin A, latrunculin A] | – | – | a slight increase in closing speed, then a slight expansion of the ring | the speed is first slightly increasing, then the ring becomes larger again until the signal vanishes | Cells did not divide | the ring does not close completely |
